According to the NIST ThermoML archive (doi:10.1016/j.fluid.2017.08.016):
Several values for one entry are separate records, joined by “and”; a condition that tells them apart may be missing. Identical values can stand only once.

Settings: for mass density: 101.33 kPa, Liquid, Vibrating tube method; for surface tension liquid-gas: Pendant drop shape

COCCOCCOC [2,5,8-trioxanonane]
Settings | mass density | surface tension liquid-gas [mN/m]
303.15 K | 933.98 kg/m3 | –
303.16 K | 933.65 kg/m3 | 28.54
308.15 K | 928.95 kg/m3 | –
313.15 K | 923.97 kg/m3 | –
313.16 K | 923.61 kg/m3 | 27.57
318.15 K | 918.94 kg/m3 | –
323.15 K | 913.9 kg/m3 | –
323.17 K | 913.51 kg/m3 | 26.27
328.15 K | 908.84 kg/m3 | –
333.15 K | 903.76 kg/m3 and 903.38 kg/m3 | 24.98
338.15 K | 898.67 kg/m3 | –
343.15 K | 893.55 kg/m3 and 893.13 kg/m3 | 23.79
348.15 K | 888.41 kg/m3 | –
353.15 K | 883.24 kg/m3 | –
353.16 K | 882.79 kg/m3 | 22.87
358.15 K | 878.04 kg/m3 | –
363.14 K | 872.36 kg/m3 | 21.68
363.15 K | 872.81 kg/m3 | –
373.14 K | 861.79 kg/m3 | 20.53
383.16 K | 851.06 kg/m3 | 19.43
393.15 K | 840.22 kg/m3 | 18.37

CCCCC(CC)COC(C)=O (centres undefined) [2-ethylhexyl acetate]
Settings | mass density | surface tension liquid-gas [mN/m]
303.15 K | 863.51 kg/m3 | –
303.17 K | 863.56 kg/m3 | 25.15
308.15 K | 859.15 kg/m3 | –
313.15 K | 854.77 kg/m3 | –
313.16 K | 854.84 kg/m3 | 24.23
318.15 K | 850.39 kg/m3 | –
323.15 K | 846.01 kg/m3 | –
323.16 K | 846.08 kg/m3 | 23.23
328.15 K | 841.61 kg/m3 | –
333.15 K | 837.2 kg/m3 and 837.29 kg/m3 | 22.28
338.15 K | 832.78 kg/m3 | –
343.15 K | 828.35 kg/m3 and 828.44 kg/m3 | 21.27
348.15 K | 823.91 kg/m3 | –
353.15 K | 819.45 kg/m3 | –
353.16 K | 819.54 kg/m3 | 20.22
358.15 K | 814.98 kg/m3 | –
363.15 K | 810.49 kg/m3 and 810.59 kg/m3 | 19.26
373.15 K | 801.56 kg/m3 | 18.35
383.15 K | 792.46 kg/m3 | 17.44
393.16 K | 783.27 kg/m3 | 16.59

COCCO [2-methoxyethan-1-ol]
Settings | mass density [kg/m3] | surface tension liquid-gas [mN/m]
303.15 K | 956.73 | –
303.16 K | 956.41 | 30.06
308.15 K | 952.09 | –
313.14 K | 947.1 | 29.01
313.15 K | 947.42 | –
318.15 K | 942.72 | –
323.15 K | 937.98 | –
323.16 K | 937.62 | 27.98
328.15 K | 933.21 | –
333.14 K | 928.03 | 26.9
333.15 K | 928.39 | –
338.15 K | 923.54 | –
343.15 K | 918.64 | –
343.16 K | 918.23 | 25.88
348.15 K | 913.69 | –
353.15 K | 908.7 | –
353.16 K | 908.26 | 24.7
358.15 K | 903.65 | –
363.15 K | 898.55 | –
363.16 K | 898.09 | 23.6
373.16 K | 887.7 | 22.56
383.17 K | 877.05 | 21.58
393.17 K | 866.15 | 20.51

CCOC(=O)CCC(=O)OCC [diethyl butanedioate]
Settings | mass density | surface tension liquid-gas [mN/m]
303.15 K | 1029.59 kg/m3 | –
303.16 K | 1029.57 kg/m3 | 30.62
308.15 K | 1024.4 kg/m3 | –
313.15 K | 1019.2 kg/m3 and 1019.2 kg/m3 | 29.55
318.15 K | 1014.01 kg/m3 | –
323.15 K | 1008.81 kg/m3 and 1008.81 kg/m3 | 28.42
328.15 K | 1003.6 kg/m3 | –
333.15 K | 998.39 kg/m3 | –
333.17 K | 998.37 kg/m3 | 27.41
338.15 K | 993.16 kg/m3 | –
343.15 K | 987.93 kg/m3 | –
343.17 K | 987.91 kg/m3 | 26.33
348.15 K | 982.7 kg/m3 | –
353.15 K | 977.45 kg/m3 | –
353.16 K | 977.44 kg/m3 | 25.12
358.15 K | 972.19 kg/m3 | –
363.15 K | 966.91 kg/m3 | –
363.16 K | 966.9 kg/m3 | 24.02
373.14 K | 956.34 kg/m3 | 22.95
383.15 K | 945.69 kg/m3 | 21.96
393.17 K | 934.96 kg/m3 | 21.03

Cc1ccccc1 [toluene]
Settings | surface tension liquid-gas [mN/m]
303.16 K | 27.15
308.15 K | 26.51
313.15 K | 25.98
318.13 K | 25.42
323.15 K | 24.89
328.16 K | 24.34
333.14 K | 23.65
338.16 K | 23.08
343.16 K | 22.55
348.16 K | 21.98
353.15 K | 21.45
358.15 K | 20.92
363.16 K | 20.37
368.14 K | 19.86
